The values below come from PubChem BioAssay AID328 (DTP/NCI, 2004).

The subject of this test is BDF1 mice, P388 leukemia ip, median survival T/C. The test is described as follows: NCI In Vivo Anticancer Drug Screen. Data for tumor model P388 Leukemia (intraperitoneal) in B6D2F1 (BDF1) mice. The following applies: endpoint: median survival time, higher = longer survival. A digest of the protocol: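 Read-out is survival of treated animals expressed relative to the vehicle group, as a T/C ratio.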

Setting [1] is: dose: 25.0 mg/kg/injection, schedule: Q01DX009 (ip), vehicle: saline with Tween-80.
[2] abbreviates: dose: 100.0 mg/kg/injection, schedule: Q01DX001 (ip), vehicle: saline with Tween-80.
[3] abbreviates: dose: 200.0 mg/kg/injection, schedule: Q01DX001 (ip), vehicle: saline with Tween-80.
Setting [4] is: dose: 100.0 mg/kg/injection, schedule: Q04DX003 (ip), vehicle: saline with Tween-80.
Where [5] appears, read: dose: 200.0 mg/kg/injection, schedule: Q04DX003 (ip), vehicle: saline with Tween-80.
The mark [6] stands for this setting: dose: 400.0 mg/kg/injection, schedule: Q04DX003 (ip), vehicle: saline with Tween-80.
Where [7] appears, read: dose: 6.25 mg/kg/injection, schedule: Q01DX009 (ip), vehicle: saline with Tween-80.
Setting [8] is: dose: 12.5 mg/kg/injection, schedule: Q01DX009 (ip), vehicle: saline with Tween-80.
Where [9] appears, read: dose: 100.0 mg/kg/injection, schedule: Q01DX009 (ip), vehicle: saline with Tween-80.
Where [10] appears, read: dose: 200.0 mg/kg/injection, schedule: Q01DX009 (ip), vehicle: saline with Tween-80.
Where [11] appears, read: dose: 400.0 mg/kg/injection, schedule: Q01DX009 (ip), vehicle: saline with Tween-80.

“And” between values parts separate entries of the source, which are not always exact repeats. Equal entries are not always repeated. Toxic doses and inconclusive results are not listed.

Regarding `O=NN(CCCl)C(=O)NC1CSCSC1`, the T/C reads like this: (dose: 0.7 mg/kg/injection, schedule: Q01DX009 (ip), vehicle: saline with Tween-80) 92 % of control; (dose: 1.7 mg/kg/injection, schedule: Q01DX009 (ip), vehicle: saline with Tween-80) 151 % of control; (dose: 2.6 mg/kg/injection, schedule: Q01DX009 (ip), vehicle: saline with Tween-80) 159 % of control; (dose: 3.0 mg/kg/injection, schedule: Q04DX003 (ip), vehicle: saline with Tween-80) 119 % of control; (dose: 4.0 mg/kg/injection, schedule: Q01DX009 (ip), vehicle: saline with Tween-80) 250 % of control and 192 % of control; (dose: 5.0 mg/kg/injection, schedule: Q04DX003 (ip), vehicle: saline with Tween-80) 152 % of control. In addition, the T/C reads like this: (dose: 6.0 mg/kg/injection, schedule: Q01DX009 (ip), vehicle: saline with Tween-80) 230 % of control and 250 % of control; (dose: 8.0 mg/kg/injection, schedule: Q04DX003 (ip), vehicle: saline with Tween-80) 185 % of control; (dose: 9.0 mg/kg/injection, schedule: Q01DX009 (ip), vehicle: saline with Tween-80) 187 % of control; (dose: 12.0 mg/kg/injection, schedule: Q01DX009 (ip), vehicle: saline with Tween-80) 184 % of control; (dose: 12.0 mg/kg/injection, schedule: Q04DX003 (ip), vehicle: saline with Tween-80) 272 % of control and 285 % of control; (dose: 18.0 mg/kg/injection, schedule: Q04DX003 (ip), vehicle: saline with Tween-80) 204 % of control. For the same molecule, the T/C runs as follows: under setting [1], 90 % of control; (dose: 25.0 mg/kg/injection, schedule: Q04DX003 (ip), vehicle: saline with Tween-80) 240 % of control and 172 % of control; (dose: 37.0 mg/kg/injection, schedule: Q04DX003 (ip), vehicle: saline with Tween-80) 272 % of control and 95 % of control.

For `O=C(Nc1ccc(Cl)cc1)O/N=C/c1ccccn1`, the T/C is, setting by setting: under setting [2], 95 % of control; under setting [3], 104 % of control; (dose: 400.0 mg/kg/injection, schedule: Q01DX001 (ip), vehicle: saline with Tween-80) 90 % of control.

As for `Cn1c2ccccc2c(=S)c2ccccc21`, the T/C was 89 % of control under setting [2] and 90 % of control under setting [3].

As for `C(=Nc1ccc(-c2ccccc2)cc1)c1ccccc1`, the T/C under setting [4] was 100 % of control, the T/C under setting [5] was 100 % of control and the T/C under setting [6] is 100 % of control.

For `CCCCOCN1CCCCC1`, the T/C reads like this: (dose: 50.0 mg/kg/injection, schedule: Q04DX003 (ip), vehicle: saline with Tween-80) 108 % of control; under setting [4], 120 % of control; under setting [5], 104 % of control.

In the case of `COc1c2c(c(OC(C)=O)c3c1C(=O)c1ccccc1C3=O)CCCC2`, the T/C is, setting by setting: (dose: 6.25 mg/kg/injection, schedule: Q01DX001 (ip), vehicle: saline) 115 % of control; (dose: 12.5 mg/kg/injection, schedule: Q01DX001 (ip), vehicle: saline) 115 % of control; (dose: 25.0 mg/kg/injection, schedule: Q01DX001 (ip), vehicle: saline) 115 % of control; (dose: 50.0 mg/kg/injection, schedule: Q01DX001 (ip), vehicle: saline) 115 % of control; (dose: 100.0 mg/kg/injection, schedule: Q01DX001 (ip), vehicle: saline) 115 % of control.

For `C[As](C)(=S)[As](C)(C)=S`, the T/C was 116 % of control under setting [7], 114 % of control under setting [8] and 119 % of control under setting [1].

As to `Nc1ncnc2c1ncn2C1CC(CO)C(O)C1O` (stereo unspecified), the T/C was 100 % of control (dose: 6.25 mg/kg/injection, schedule: Q01DX009 (ip), vehicle: carboxymethylcellulose (CMC)) and 95 % of control (dose: 12.5 mg/kg/injection, schedule: Q01DX009 (ip), vehicle: carboxymethylcellulose (CMC)).

`CCCCCCCCCCCCCCCCCCNC(=O)Nc1ccc(C)c(C)c1`: the T/C under setting [4] is 109 % of control, the T/C under setting [5] is 109 % of control and the T/C under setting [6] is 109 % of control.

As for `COC(=O)NC1CCCCC1I` (stereo unspecified), the T/C is 100 % of control under setting [9]; 100 % of control under setting [4]; 100 % of control under setting [10]; 100 % of control under setting [5]; 100 % of control under setting [11]; 109 % of control under setting [6].

As to `CCCCn1cnc2c(=S)nc[nH]c21`, the T/C is 100 % of control (dose: 15.0 mg/kg/injection, schedule: Q01DX010 (ip), vehicle: water); 100 % of control (dose: 16.0 mg/kg/injection, schedule: Q01DX010 (ip), vehicle: saline); 90 % of control (dose: 30.0 mg/kg/injection, schedule: Q01DX010 (ip), vehicle: water); 90 % of control and 95 % of control (dose: 32.0 mg/kg/injection, schedule: Q01DX010 (ip), vehicle: saline); 104 % of control and 113 % of control (dose: 64.0 mg/kg/injection, schedule: Q01DX010 (ip), vehicle: saline); 95 % of control and 104 % of control (dose: 128.0 mg/kg/injection, schedule: Q01DX010 (ip), vehicle: saline).

For `COc1cc(C(=O)CCC(=O)O)cc(OC)c1OC`, the T/C was 100 % of control (dose: 100.0 mg/kg/injection, schedule: Q01DX009 (ip), vehicle: Klucel (hydroxypropylcellulose) (HPC)); 100 % of control (dose: 200.0 mg/kg/injection, schedule: Q01DX009 (ip), vehicle: Klucel (hydroxypropylcellulose) (HPC)); 105 % of control (dose: 200.0 mg/kg/injection, schedule: Q04DX003 (ip), vehicle: Klucel (hydroxypropylcellulose) (HPC)); 95 % of control (dose: 400.0 mg/kg/injection, schedule: Q01DX009 (ip), vehicle: Klucel (hydroxypropylcellulose) (HPC)); 115 % of control (dose: 400.0 mg/kg/injection, schedule: Q04DX003 (ip), vehicle: Klucel (hydroxypropylcellulose) (HPC)).

Take `COc1c(Br)cc(Br)cc1/C=C/[N+](=O)[O-]`: the T/C was 114 % of control under setting [7], 114 % of control under setting [8] and 116 % of control under setting [1].

Take `CSc1cccc(NC(=O)Nc2onc(C)c2C)c1`: the T/C runs as follows: (dose: 12.5 mg/kg/injection, schedule: Q01DX009 (ip), vehicle: Klucel (hydroxypropylcellulose) (HPC)) 101 % of control; (dose: 25.0 mg/kg/injection, schedule: Q01DX009 (ip), vehicle: Klucel (hydroxypropylcellulose) (HPC)) 99 % of control; (dose: 50.0 mg/kg/injection, schedule: Q01DX009 (ip), vehicle: Klucel (hydroxypropylcellulose) (HPC)) 101 % of control.

For the molecule `CC1(C)COC(c2ccc(CC(Cc3ccc(C4(C(C)(C)C)OCC(C)(C)CO4)cc3)C(=O)O)cc2)(C(C)(C)C)OC1`, the T/C by setting is: (dose: 50.0 mg/kg/injection, schedule: Q01DX005 (ip), vehicle: saline with Tween-80) 86 % of control; (dose: 100.0 mg/kg/injection, schedule: Q01DX005 (ip), vehicle: saline with Tween-80) 93 % of control; (dose: 200.0 mg/kg/injection, schedule: Q01DX005 (ip), vehicle: saline with Tween-80) 96 % of control.

Turning to `C=CCCCCCCCCC(=O)NCC1CC1`, the T/C by setting is: under setting [9], 100 % of control; under setting [10], 90 % of control; under setting [11], 86 % of control.

Take `Oc1cc(CN(CCCl)CCCl)c(O)cc1CN(CCCl)CCCl`: the T/C was 170 % of control (dose: 0.63 mg/kg/injection, schedule: Q01DX010 (ip), vehicle: saline); 163 % of control and 210 % of control (dose: 1.25 mg/kg/injection, schedule: Q01DX010 (ip), vehicle: saline); 177 % of control and 220 % of control (dose: 2.5 mg/kg/injection, schedule: Q01DX010 (ip), vehicle: saline); 165 % of control (dose: 5.0 mg/kg/injection, schedule: Q01DX010 (ip), vehicle: saline).

On to `Cc1ccc2c[n+]3cc4ccccc4cc3cc2c1`, for which the T/C is, setting by setting: (dose: 1.56 mg/kg/injection, schedule: Q01DX009 (ip), vehicle: saline) 113 % of control; (dose: 4.5 mg/kg/injection, schedule: Q04DX003 (ip), vehicle: saline) 113 % of control; (dose: 4.6 mg/kg/injection, schedule: Q01DX009 (ip), vehicle: saline) 150 % of control; (dose: 9.0 mg/kg/injection, schedule: Q04DX003 (ip), vehicle: saline) 86 % of control.
